According to publication PMC6394990, “Detailed characterization of the solution kinetics and thermodynamics of biotin, biocytin and HABA binding to avidin and streptavidin” (PLoS ONE, 2019):
pKd: −log10 of the molar value. Like-named read-outs stand apart in the source and are kept apart here.

What was measured:
avidin (AV) [1] = biological target: T1, avidin (AV) (Gallus gallus, UniProt P02701); test: Relaxation kinetics of unlabeled biotin reacting with the AV-HABA complex; format: binding; details: pH 8
T1 construct: purchased Calbiochem (La Jolla, CA)
T1 sequence (P02701 25-152): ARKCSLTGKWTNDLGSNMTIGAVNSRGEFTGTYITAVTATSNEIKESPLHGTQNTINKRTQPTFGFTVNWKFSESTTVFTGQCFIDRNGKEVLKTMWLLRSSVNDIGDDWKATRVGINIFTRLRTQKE
Protocol: (§1) All of the following protein concentrations are presented on a binding site basis, thus in the case of the HABA association reactions for AV were measured at 23.0 ± 0.1°C with a concentration of 87 μM HABA and 7.7 μM AV. The AV-HABA relaxation reactions were conducted with a preformed AV-HABA complex made up of 200 μM HABA and 10 μM AV, flowed against varying amounts of B7 from 100 μM up to 4000 μM for a [HABA]/[B7] ratio that ranged from 0.05 to 2.
The relaxation experiments were prepared at concentrations in which HABA occupies all sites (AV-HABA4). Biotin replaces HABA relative to the koff of the dye as shown for the first step (Eq 1) and then repeated for all sites. Having greater affinity, B7 occupies all sites at the end of the reaction and the measured kon is related to the affinities of the ligand bound protein.
The reaction is monitored by the HABA absorbance changes at 500 nm as it is replaced by unlabeled B7; yielding the relaxation constant of the reaction (Relaxation, Eq 2) which contains information of the B7 association rate constant of the open binding site, k1AV−HABA3 to form a full saturated complex (AV-HABA4) and the dissociation rate of that full complex, k−1AV−HABA4 , to yield a complex with three HABA molecules (AV-HABA3). In the subsequent steps, B7 replaces HABA as the ligand but the release of HABA creates an unoccupied site that remains in the same state. In summary, the experiment was designed to acquire the pseudo-first order association rate constant of B7 binding ( konB ) to the solely free binding site in a complex occupied by three HABA molecules (AV-HABA3).
The reciprocal of the relaxation constant (1/Relaxation) is plotted vs. the [HABA]/[B] concentration ratio (Eq 3) allowing to calculate: k−1AV−HABA4 and k1AV−HABA3 by solving for the intercept ( 1/k−1AV−HABA4 ) and the respective slope: m=k1AV−HABA3/(k−1AV−HABA4∙konB) . The exponential decays were analyzed by the method of Foss. There was no departure from simple first order decay in the relaxation, justifying the use of the following model and equations.

avidin (AV) [2] = biological target: T1, avidin (AV); test: HABA association reaction for AV (stopped-flow absorbance at 500 nm); format: binding; details: 23°C
Protocol: as §1
These calculations have been described elsewhere and were acquired for the AB1 complexes. The HABA association reaction for AV was carried out under pseudo-first order conditions on a micro absorbance SF instrument equipped with a xenon arc lamp (described above) and a monochromator (model 82–410, Jarrel-Ash, Waltham, Mass.) set at 500 nm.

avidin (AV) [3] = biological target: T1, avidin (AV); details: pH 8; read-out: KD AV-HABA; cited from earlier work

With `O=C(O)c1ccccc1N=Nc1ccc(O)cc1` [HABA, 2-(4’-hydroxyazobenzene)-benzoic acid] the pKd (avidin (AV) [1]; from k−1 and k1) was 4.91, the “k−1 AV−HABA4, HABA dissociation rate constant of the AV-HABA4 complex” value (avidin (AV) [1]; 23°C) was 6.23 ± 0.11 s⁻¹ and the “k1 AV−HABA3, HABA association rate for the final site” value (avidin (AV) [2]) was 5.1 ± 0.1 × 10^5 M^-1s^-1. The pKd (avidin (AV) [3]) was 4.92.
